Test results reported in patent US7591979B2 (priority 2003, dated 2009).
Several values for one entry are separate records, joined by “and”; a condition that tells them apart may be missing. Identical values can stand only once.

Test system: naturally-occurring algae from water samples of the Clinch River
Format: cell-based, naturally occurring freshwater algae

COP(=S)(OC)Oc1ccc([N+](=O)[O-])cc1 [MPt, Methyl Parathion]
Percentage (%) decrease in photochemical yield: −5.41% and −7.80% and −3.19%
